Assay results as given in patent EP4467137A1, “TREATMENT OF FRONTOTEMPORAL DEMENTIA OR FRONTOTEMPORAL LOBAR DEMENTIA” (Universidad Autónoma de Madrid, priority 2023, dated 2024).

What was measured:
[1] = system: proinflammatory cytokines; assay: LPS in vivo model: brain cytokine mRNAs by qRT-PCR; set-up: species or system mouse; details: 20 mg·kg^-1 i.p. daily for 4 days; 4 h and 24 h after LPS 0.5 mg·kg^-1 i.p.
Procedure: • Figure 1. Compound 1 reduces the inflammatory response against LPS in vitro. (A) Nitric oxide (NO) production in BV2 cells detected by DAF 24 h after LPS exposure and normalized by cell viability measured by MTT (n = 9). (B) qRT-PCR of TNFα (n = 9) in BV2 cells after 24 h LPS exposure. Sulforaphane (Sfn) was used as a positive control. […] Compound 1 decreases the inflammatory process 4 and 24 hours after LPS administration in vivo. Compound 1 (20 mg·kg^-1) daily was injected i.p. four days before the i.p. LPS (0.5 mg·kg^-1) administration. […] Compound 1 ameliorates the resolution of the inflammatory process triggered by LPS. […] (B) Locomotion activity measured by line crossings of an imaginary grid. […] Compound 1 reduced tau seeding in HEK-293 tau FRET biosensor measured by flow cytometer (C). […] Representative images of hyperphosphorylated tau intensity measured by AT8 and AT180 antibodies in three different regions of the hippocampus (GD, CA3 and CA1) (n = 11-12). (B) Quantification AT8 intensity, normalized to CA3 intensity of Sham animals. (C) Quantification of AT180 intensity, normalized to CA3 intensity of Sham animals (n = 9-12). […] Quantification of sarkosyl soluble (n = 10) (C) and insoluble species (D) using AT8 antibody (n = 10). Quantification of sarkosyl soluble (n = 10) (E) and insoluble species (F) using AT180 antibody (n = 10). […]

hyperphosphorylated tau = assay: In vivo hTauP301L model: western blot of sarkosyl soluble and insoluble hyperphosphorylated tau; set-up: species or system mouse; details: adult mice; 50 mg/kg/day oral, 35 days; sarkosyl insoluble fraction
Procedure: In vivo hTau301L model was induced by stereotaxic injection of AAV-hTauP301L (AAV-hTau) particles as described in [Luengo, Enrique et al. "Implication of type 4 NADPH oxidase (NOX4) in tauopathy." Redox biology vol. 49 (2022): 102210. doi:10.1016/j.redox.2021.102210 ]. Control animals were injected with AAV-GFP. Evaluation of hyperphosphorylated tau in sarkosyl soluble and insoluble fractions; microgliosis; AT8 and AT180 by immunofluorescence; and cognitive test were performed as described previously [Luengo, Enrique et al. "Implication of type 4 NADPH oxidase (NOX4) in tauopathy." Redox biology vol. 49 (2022): 102210. doi:10.1016/j.redox.2021.102210 ].
Oral administration of Compound 1 at different dosages (20 mg·kg^-1 and 50 mg·kg^-1) was administered embedded in gelatine. The compound was given in a mixture of 10 % gelatine from porcine skin and 10 % sucralose in water, heated in a microwave oven. Before Compound 1 addition, gelatine mixture was left at RT. Afterwards, the compound was added, evenly mixed and plated 1 mL·well^-1 in a P24 plate. […]
Example 2.5. […] After 35 days treatment, hyperphosphorylated tau levels were evaluated by immunofluorescence and by WB in soluble and insoluble in sarkosyl fractions. […]
After 35 days of treatment, monomeric and oligomeric forms of tau, soluble and insoluble in sarkosyl, were analysed by western blot. […]

## COc1ccc2c(c1)CC(c1c[nH]c3ccc(OC)cc13)N2 (stereo not shown) [Compound 1, 5-Methoxy-3-(5-methoxyindolin-2-yl)-1H-indole]
[1]
  IL-1β mRNA in brain: reduced
  TNFα mRNA in brain: reduced
Hyperphosphorylated tau
  insoluble monomers of AT180: significant reduction
  insoluble oligomers of AT180: tendency to reduce
